We go through 3 substances from US20030134803A1, “Use of sulfonated compounds as a barrier contraceptive” (The Regents of the University of California, priority 2002, published 2003).

For data set [1], the system named is zona pellucida of immature oocytes. Put plainly: sperm-zona pellucida binding assay (ZBA). It counts as cell-based, cynomolgus macaque.
The subject of a further data set is sperm. Put plainly: sperm percent motility and progression scoring. It counts as cell-based, cynomolgus macaque. The conditions noted are these: for effect on percentage of motile sperm and sperm progression: zona binding studies, 1.5 mg/ml, pre- or post-capacitation treatment. The procedure: Four adult male cynomolgus macaques which were caged individually at the California Regional Primate Research Center (CRPRC) in compliance with the Federal Animal Welfare Act and the NIH Guidelines for Care and Use of Laboratory Animals. The animals were maintained on a 12L:12D light cycle at 25-27° C. and were given a diet of Purina monkey chow and water ad libitum. Semen samples were collected by electroejaculation, e.g., as described in Sarason et al., The use of nonmetal electrodes in ejaculation of restrained but unanesthetized macaques, (1991) J. Med. Primatol., 20:122-125, into 15 ml centrifuge tubes containing 5 ml of Hepes-buffered BWW maintained at room temperature (RT). After 15-30 min, the coagulum was removed, the semen samples were further diluted with an additional 5 ml of Hepes-buffered BWW containing 3 mg/ml bovine serum albumin (BSA) and then concentrated into a 1 ml pellet by centrifugation at 300×g for 10 minutes. LSA (previously dissolved in hepes-buffered BWW salts) was added to half of the pellet to give a final concentration of 1.5 mg LSA/ml of sperm. An equal volume of hepes-buffered BWW salts was added to the other half of the pellet. Both aliquots were incubated at room temperature for 40 minutes and then washed and capacitated, e.g., as described in Tollner T L, et al., Soybean trypsin inhibitor as a probe for the acrosome reaction in motile cynomolgus macaque sperm (2000) Zygote 8:127-137. Briefly, sperm were centrifuged through 3.5 ml of 80% Percoll for 25 minutes at 400 g. The supernatant containing Percoll and any remaining sperm was removed and the sperm pellet was resuspended in bicarbonate-buffered BWW, e.g., as described in Overstreet et al., Penetration of human spermatozoa into the human zona pellucida and the zona-free hamster egg: a study of fertile donors and infertile patients, (1980), Fertil. Steril., 33:534-542; and, Overstreet et al., In vitro capacitation of human spermatozoa after passage through a column of cervical mucus, (1980) Fert. Steril., 34:604-606, containing 30 mg/ml of BSA. Sperm were washed two more times by centrifugation at 300 g for 10 minutes and dilution in this medium. […] Following activation, 200 sperm per treatment were scored for percent motility at 200× magnification with phase-contrast optics using a BH-2 series Olympus microscope. Progression was assessed with a 0-4 rating system (0=no progressive sperm; 1=1-25% of motile sperm have forward (space gaining) progressive motility; 2=26-50% of motile sperm have forward progressive motility; 3=51-75% of motile sperm have forward progressive motility; 4=76-100% of motile sperm have forward progressive motility).

Another data set concerns mature oocytes. Put plainly: in vitro fertilization (IVF) with treated sperm. It is filed as cell-based, cynomolgus macaque. The conditions noted are these: 1.5 mg/ml.
For data set [2] the following is noted: oral; cited from earlier work.
Where [3] appears, read: 1.5 mg/ml added post-capacitation (PC, Post-C), after activation.
[4] abbreviates: 1.5 mg/ml added pre-capacitation (Pre-C, pre-wash PW), prior to washing through Percoll and overnight incubation.

On to Fucoidan [reference compound], for which the “inhibition of sperm-zona binding as compared to controls” value was 91.5% in data set [1] (setting [3]) and 36% in data set [1] (setting [4]). The “effect on percentage of motile sperm and sperm progression” value in the data set with sperm was “No motility changes were observed”.
For Lignosulfonic acid [LSA], the “inhibition of sperm-zona binding as compared to controls” value in data set [1] (setting [3]) is 92.5%; in data set [1] (setting [4]), 82.5%. For the same substance, the “effect on sperm motility in IVF” value with sperm (IVF sperm preparations) was “no difference between treatments on sperm motility”. For the same substance, the “percentage of sperm developing hyperactivated motility patterns consistent with capacitation” value with sperm (LSA-treated and control sperm) was greater than 75%. In addition, in the data set with sperm, the “effect on percentage of motile sperm and sperm progression” value is “Neither the percentage of motile sperm or sperm progression were effected”. Also, the “fertilization in IVF trials” value with mature oocytes (post-capacitation (Post-C, PC) treatment) is listed as “blocked fertilization”; with mature oocytes (pre-capacitation (prewash, PW, Pre-C) treatment), “blocked fertilization”. The 50% lethal dose (LD50) (in general, the dose at which mortality reaches 50%) in data set [2] is greater than 40000 mg/kg.
On to polyanetholesulfonic acid [PASA], for which the “binding of treated sperm to the zona pellucida of immature oocytes (in words)” value in data set [1] (treatment post-capacitation (PC) or pre-wash (PW), FIG. 3) is given as “inhibited their binding to the zona pellucida”.
